Laboratory results: patent US6903134B2, “Formulation comprising benzofuranone derivatives for protection against oxidative stress” (Merck Patent GmbH, priority 2000, dated 2005)

Legend:
[1] = 2,2-diphenyl-1-picrylhydrazyl (DPPH) assay, free-radical scavenging; format: biochemical; settings: for free-radical scavenger / antioxidant properties compared with tocopherol (vitamin E): DPPH assay, same experimental set-up; for Absorbance in %, based on absorbance without THBC: 515 nm, 25° C., 1 cm, constant absorbance
Text: The performance of the DPPH assay is described in Brand-Williams, W., Cuvelier, M. E. & Berset, C. […] Gamez, E. J. et al. “Antioxidant flavonoid glycosides from Daphniphyllum calycinum”; J. Nat. Prod.
2,2-Diphenyl-1-picrylhydrazyl is a free radical which is stable in solution. The unpaired electron results in a strong absorption band at 515 nm, and the solution has a dark violet colour. In the presence of a free-radical scavenger, the electron is paired, the absorption disappears, and the decoloration proceeds stoichiometrically taking into account the electrons taken up. The absorbance is measured in a photometer. The anti-free-radical property of the substance to be tested is determined by measuring the concentration at which 50% of the 2,2-diphenyl-1-picrylhydrazyl employed has reacted with the free-radical scavenger. This concentration is expressed as EC50, a value which can be considered to be a property of the substance under the given measurement conditions. The substance investigated is compared with a standard (for example tocopherol).
In addition, the slope of the straight lines in the linear region is determined and the EC50 calculated.
A 70 μM stock solution of 2,2-diphenyl-1-picrylhydrazyl (DPPH) in ethanol was prepared. Such amounts of 4,6,3′,4′-tetrahydroxybenzylcoumaranone (THBC) were added to aliquots of this solution so as to give the THBC/DPPH ratios indicated in Table 1. The absorbance was in each case measured at 515 nm, 25° C. and 1 cm, with Table 1 in each case indicating the value measured at constant absorbance. The values are plotted graphically against one another in FIG. 1, with the molar ratio being plotted on the x axis and the measured absorbance as a relative proportion of the absorbance measured for the stock solution (100%) being plotted on the y axis.

[2] = Stabilisation of dibenzoylmethane UV filters against decomposition by UV light; format: physicochemical; settings: no method or figures given
Text: The invention furthermore relates to the stabilisation of UV filters. A known and effective class of light-protection filter substances is formed by dibenzoylmethane derivatives. However, it is disadvantageous that these substances are very easily decomposed by UV light, and their protective properties are thus lost. An example of a light-protection filter from this class of compounds which is available on the market is 4-(tert-butyl)-4′-methoxydibenzoylmethane, which has the following structure: [drawing 18]

SMILES: O=C1c2c(O)cc(O)cc2OC1Cc1ccc(O)c(O)c1 (centres unmarked) [THBC, 4,6,3′,4′-tetrahydroxybenzylcoumaranone]
- free-radical scavenger / antioxidant properties compared with tocopherol (vitamin E) [1]: better free-radical scavenger properties than tocopherol
- free-radical scavenger / antioxidant properties compared with tocopherol (vitamin E) ([1]; listed as 4,6,3′,4′-Tetrahydroxycoumaranone): more potent antioxidant than tocopherol
- Absorbance in %, based on absorbance without THBC ([1]; THBC/DPPH 0.01): 97.66%
- Absorbance in %, based on absorbance without THBC ([1]; THBC/DPPH 0.02): 94.04%
- Absorbance in %, based on absorbance without THBC ([1]; THBC/DPPH 0.05): 87.02%
- Absorbance in %, based on absorbance without THBC ([1]; THBC/DPPH 0.07): 79.15%
- Absorbance in %, based on absorbance without THBC ([1]; THBC/DPPH 0.10): 72.13%
- Absorbance in %, based on absorbance without THBC ([1]; THBC/DPPH 0.12): 62.72%
- Absorbance in %, based on absorbance without THBC ([1]; THBC/DPPH 0.18): 44.18%
- Absorbance in %, based on absorbance without THBC ([1]; THBC/DPPH 0.24): 26.08%
- Absorbance in %, based on absorbance without THBC ([1]; THBC/DPPH 0.30): 16.16%
- Absorbance in %, based on absorbance without THBC ([1]; THBC/DPPH 0.37): 15.73%
- Absorbance in %, based on absorbance without THBC ([1]; THBC/DPPH 0.43): 15.27%
- Absorbance in %, based on absorbance without THBC ([1]; THBC/DPPH 0.49): 15.27%
- Absorbance in %, based on absorbance without THBC ([1]; THBC/DPPH 0.55): 15.27%
- Absorbance in %, based on absorbance without THBC ([1]; THBC/DPPH 0.61): 15.05%
- Absorbance in %, based on absorbance without THBC ([1]; THBC/DPPH 0.73): 14.19%
- Absorbance in %, based on absorbance without THBC ([1]; THBC/DPPH 0.97): 14.56%
- Absorbance in %, based on absorbance without THBC ([1]; THBC/DPPH 1.21): 14.56%
- stabilisation action for dibenzoylmethanes [2]: particularly high stabilisation action
